Experimental data: paper PMC6792352, “Limited Chemical Structural Diversity Found to Modulate Thyroid Hormone Receptor in the Tox21 Chemical Library” (Environmental Health Perspectives, 2019)
Counter-ions that a name gives are not always drawn.

assay: in vitro; details: rat, gh3-tre-luc cells, AC50 (uM) modified / 1000

`C[N+]1(C)[C@@H]2CC(OC(=O)[C@H](CO)c3ccccc3)C[C@H]1[C@@H]1O[C@@H]12` (some centres unmarked) [Scopolamine methylbromide] and `CCOC(=O)CCc1ccccc1` [Ethyl hydrocinnamate] cannot be ordered by CC50 at 24 h: over 50 µM for the first, over 90 µM for the second.

`O=C(NCCNCC(O)COc1ccc(O)cc1)N1CCOCC1` (centres unmarked) [Xamoterol] and `O=S(=O)(O)CCCN1CCOCC1` [4-Morpholinepropanesulfonic acid] cannot be ordered by CC50 at 24 h: over 50 µM for the first, over 90 µM for the second.

`CCn1cc(C(=O)O)c(=O)c2ccc(C)nc21` [Nalidixic acid] and `O=C(O)c1cn(-c2ccc(F)cc2)c2cc(N3CCNCC3)c(F)cc2c1=O` [Sarafloxacin hydrochloride] cannot be ordered by CC50 at 24 h: over 90 µM for the first, over 50 µM for the second.

`NCCC(O)(P(=O)(O)O)P(=O)(O)O` [Pamidronic acid] and `NCCCC(N)(C(=O)O)C(F)F` (centres unmarked) [Eflornithine hydrochloride] cannot be ordered by CC50 at 24 h: over 50 µM for the first, over 50 µM for the second.

`CCC(C)(C)c1cc(O)c(C(C)(C)CC)cc1O` [2,5-Bis(2-methylbutan-2-yl)benzene-1,4-diol] and `Cc1cc(O)c(C(C)C)cc1Cl` [6-Chlorothymol] are within 1.5-fold of each other in CC50 at 24 h: 53.8 µM for the first, 66.1 µM for the second.

`NC(=S)c1c(Cl)cccc1Cl` [Chlorthiamid] and `NC(=O)c1ccccc1C(N)=O` [Phthalamide] cannot be ordered by CC50 at 24 h: over 90 µM for the first, over 90 µM for the second.

`CC1(C)C(=O)NC(=O)NC1=O` [5,5-Dimethylbarbituric acid] and `O=c1[nH]c(=O)c2[nH]c(=O)[nH]c2[nH]1` [Sodium urate] cannot be ordered by CC50 at 24 h: over 90 µM for the first, over 50 µM for the second.

Going from `CCCCCC(C)OC(=O)COc1ccc(Cl)c2cccnc12` (centres unmarked) [Cloquintocet-mexyl] to `CCCCCCC(C)O` (centres unmarked) [2-Octanol], the CC50 at 24 h rises from 71.4 µM to over 90 µM.

`O=S(=O)(c1ccc(Cl)cc1)c1cc(Cl)c(Cl)cc1Cl` [Tetradifon] and `O=C(O)Cc1ccc(CCNS(=O)(=O)c2ccc(Cl)cc2)cc1` [Daltroban] cannot be ordered by CC50 at 24 h: 60.5 µM for the first, over 50 µM for the second.

`CC(C)OC(=O)c1ccccc1C(=O)OC(C)C` [Diisopropyl phthalate] and `CCOC(=O)c1cnc2cc(OCC(C)C)c(OCC(C)C)cc2c1O` [Buquinolate] cannot be ordered by CC50 at 24 h: over 90 µM for the first, over 50 µM for the second.

`Nc1cccc2c(N)cccc12` [1,5-Naphthalenediamine] and `c1ccc2cc3c(ccc4ccccc43)cc2c1` [Benz(a)anthracene] cannot be ordered by CC50 at 24 h: over 90 µM for the first, over 90 µM for the second.

`Cc1ccc(NC(=O)c2ccc(CN3CCN(C)CC3)cc2)cc1Nc1nccc(-c2cccnc2)n1` [Imatinib mesylate] and `O=C(CCCN1CCC2(CC1)C(=O)NCN2c1ccccc1)c1ccc(F)cc1` [Spiperone] are within 1.5-fold of each other in CC50 at 24 h: 18.5 µM for the first, 14.1 µM for the second.

`COc1ccc(CCN(C)CCCC(C#N)(c2ccc(OC)c(OC)c2)C(C)C)cc1OC` (centres unmarked) [Verapamil hydrochloride] and `CCCC(C(=O)OCCN(CC)CC)(c1ccccc1)c1ccccc1` [Proadifen hydrochloride] are within 1.5-fold of each other in CC50 at 24 h: 24.5 µM for the first, 24.7 µM for the second.

`O=[N+]([O-])c1cccc(C(F)(F)F)c1` [1-Nitro-3-(trifluoromethyl)benzene] and `O=[N+]([O-])c1ccc(CCO)cc1` [2-(4-Nitrophenyl)ethanol] cannot be ordered by CC50 at 24 h: over 90 µM for the first, over 90 µM for the second.

`CCN(CC)C(=O)SCc1ccc(Cl)cc1` [Thiobencarb] and `O=C(Cl)c1ccc(C(=O)Cl)cc1` [1,4-Benzenedicarbonyl dichloride] cannot be ordered by CC50 at 24 h: over 90 µM for the first, over 90 µM for the second.

First: ClCC1CO1 (centres unmarked) [Epichlorohydrin]
Second: O=C(OCC1CO1)C1CCCCC1C(=O)OCC1CO1 (centres unmarked) [1,2-Cyclohexanedicarboxylic acid, bis(oxiranylmethyl) ester]
The CC50 at 24 h of the first is higher: over 90 µM for the first, 44.7 µM for the second.

`Oc1ccccc1F` [2-Fluorophenol] and `Fc1ccccc1-c1ccccc1` [2-Fluorobiphenyl] cannot be ordered by CC50 at 24 h: over 90 µM for the first, over 90 µM for the second.

`COC(=O)c1ccc(I)cc1S(=O)(=O)NC(=O)Nc1nc(C)nc(OC)n1` [Iodosulfuron-methyl-sodium] and `COC(=O)c1ccccc1CS(=O)(=O)NC(=O)Nc1nc(OC)cc(OC)n1` [Bensulfuron-methyl] cannot be ordered by CC50 at 24 h: over 90 µM for the first, over 90 µM for the second.

`O=S(=O)(O)CCCS(=O)(=O)O` [Disodium propane-1,3-disulfonate] and `Cc1ccc(C)c(S(=O)(=O)O)c1` [2,5-Dimethylbenzenesulfonic acid] cannot be ordered by CC50 at 24 h: over 50 µM for the first, over 80 µM for the second.

`O=C(N[C@H]1N=C(c2ccccc2F)c2cccc3c2N(CC3)C1=O)c1cc2ccccc2[nH]1` [Pranazepide] and `CCOc1ccc2[nH]cc(C(=O)NCc3ccccc3)c(=O)c2n1` [CP-457920] cannot be ordered by CC50 at 24 h: over 50 µM for the first, over 90 µM for the second.

`CCCC(C)C(=O)O` (centres unmarked) [2-Methylpentanoic acid] and `CCCCCC(C)N` (centres unmarked) [2-Aminoheptane sulfate] cannot be ordered by CC50 at 24 h: over 90 µM for the first, over 50 µM for the second.

`CNC1(C)C2CCC(C2)C1(C)C` (centres unmarked) [Mecamylamine] and `CC1(C)CC(N=C=O)CC(C)(CN=C=O)C1` (centres unmarked) [Isophorone diisocyanate] cannot be ordered by CC50 at 24 h: over 50 µM for the first, over 90 µM for the second.

`N=C(N)c1ccccc1` [Benzenecarboximidamide, monohydrochloride] and `ClC(Cl)(Cl)c1ccccc1` [Benzotrichloride] cannot be ordered by CC50 at 24 h: over 90 µM for the first, over 90 µM for the second.

Compared with `CCCCCCCCCCCCC` [Tridecane], `CCCCCCCCCCCC(=O)NCCCN(C)C` [N-[3-(Dimethylamino)propyl]dodecanamide] is lower in CC50 at 24 h: over 90 µM for the first, 18 µM for the second.

`Cc1ncc([N+](=O)[O-])n1CC(C)O` (centres unmarked) [Secnidazole] and `CCOC(=O)CC` [Ethyl propionate] cannot be ordered by CC50 at 24 h: over 50 µM for the first, over 90 µM for the second.

`COC(C)OC` [1,1-Dimethoxyethane] and `C[Si](O[Si](C)(C)C)O[Si](C)(C)C` cannot be ordered by CC50 at 24 h: over 90 µM for the first, over 90 µM for the second.

`CCCSSCCC` [Dipropyl disulfide] and `CCCNCCC` [Dipropylamine] cannot be ordered by CC50 at 24 h: over 90 µM for the first, over 90 µM for the second.

First: Cc1cccc(OCCOc2cccc(C)c2)c1 [1,1'-[Ethane-1,2-diylbis(oxy)]bis(3-methylbenzene)]
Second: COc1ccc(Nc2ccc(OC)cc2)cc1 [4,4'-Dimethoxydiphenylamine]
The CC50 at 24 h of the first is higher: over 100 µM for the first, 50.3 µM for the second.

`CCCCCCCCCCCCCCCC(=O)OCC(COC(=O)CCCCCCCCCCCCCCC)OC(=O)CCCCCCCCCCCCCCC` [Tripalmitin] and `C=C(C)C(=O)OCCCCCC` [Hexyl methacrylate] cannot be ordered by CC50 at 24 h: over 50 µM for the first, over 90 µM for the second.

`CC(C)(C)CC(C)(C)N` [2,4,4-Trimethyl-2-pentanamine] and `C=CC(C)(CCC=C(C)C)OC(=O)C(C)C` (centres unmarked) [Linalyl isobutyrate] cannot be ordered by CC50 at 24 h: over 90 µM for the first, over 90 µM for the second.

`C=CCN1CCc2nc(N)sc2CC1` [Talipexole] and `CCCC1CCC(=O)CC1` [4-Propylcyclohexanone] cannot be ordered by CC50 at 24 h: over 50 µM for the first, over 90 µM for the second.

`N#CCCSCCC#N` [3,3'-Thiodipropionitrile] and `CCOCCOCCOC(C)=O` [2-(2-Ethoxyethoxy)ethyl acetate] cannot be ordered by CC50 at 24 h: over 90 µM for the first, over 90 µM for the second.

Compared with `CN1[C@@H](CC(=O)c2ccccc2)CCC[C@H]1C[C@H](O)c1ccccc1` [Lobeline], `CC(C)=CCC1C(=O)N(c2ccccc2)N(c2ccccc2)C1=O` [Feprazone] is lower in CC50 at 24 h: over 50 µM for the first, 48.7 µM for the second.

Going from `CC(C)[C@H](N)C(=O)OCC(CO)OCn1cnc2c(=O)nc(N)[nH]c21` (some centres unmarked) [Valganciclovir hydrochloride] to `COC(=O)Nc1nc2ccc(C(=O)c3cccs3)cc2[nH]1` [Nocodazole], the CC50 at 24 h falls from over 50 µM to 0.337 µM.

`O=C1CC[C@@]2(O)[C@H]3Cc4ccc(O)c5c4[C@@]2(CCN3CC2CC2)[C@H]1O5` [Naltrexone] and `O=C(O)CCNC(=O)c1ccc(/N=N/c2ccc(O)c(C(=O)O)c2)cc1` [Balsalazide] cannot be ordered by CC50 at 24 h: over 50 µM for the first, over 50 µM for the second.

`O=C1C2CC3CC1CC(O)(C3)C2` [Idramantone] and `CC1=CC(C)C(C=O)CC1` (centres unmarked) [2,4-Dimethyl-3-cyclohexene-1-carboxaldehyde] cannot be ordered by CC50 at 24 h: over 50 µM for the first, over 90 µM for the second.

`O=C(O)C(=O)Cc1c[nH]c2ccccc12` [Indole-3-pyruvic acid] and `N[C@H](Cc1c[nH]c2ccccc12)C(=O)O` [d-Tryptophan] cannot be ordered by CC50 at 24 h: over 90 µM for the first, over 90 µM for the second.

Going from `NNc1nc(-c2ccccc2)cs1` [2-Hydrazino-4-phenylthiazole] to `CSc1nc(NC2CC2)nc(NC(C)(C)C)n1` [Cybutryne], the CC50 at 24 h rises from 47 µM to over 90 µM.

same assay, conditions: rat, gh3-tre-luc cells, AC50 (uM) modified / 1000, Tox21_110001=Tox21_111576; viability, 1 nM T3 present, 24 h

Work on `C[C@]12C=CC(=O)C=C1CC[C@@H]1[C@@H]2CC[C@]2(C)OC(=O)CC[C@@H]12` [Testolactone] yielded a CC50 at 24 h of over 50 µM.

same assay, conditions: rat, gh3-tre-luc cells, AC50 (uM) modified / 1000, Tox21_110001=Tox21_112593; viability, 1 nM T3 present, 24 h

With `CCOC(=O)C1(c2ccccc2)CCN(CCC(C#N)(c2ccccc2)c2ccccc2)CC1` [Diphenoxylate hydrochloride] the CC50 at 24 h was over 50 µM.

same assay, conditions: rat, gh3-tre-luc cells, AC50 (uM) modified / 1000, Tox21_110001=Tox21_112825; viability, 1 nM T3 present, 24 h

In the case of `CCOC(=O)C1(c2ccccc2)CCN(CCC(C#N)(c2ccccc2)c2ccccc2)CC1` [Diphenoxylate hydrochloride], the CC50 at 24 h was 19.7 µM.

same assay, conditions: rat, gh3-tre-luc cells, AC50 (uM) modified / 1000, Tox21_110001=Tox21_200003; viability, 1 nM T3 present, 24 h

Compound `Cl/C=C\Cl` [(Z)-1,2-Dichloroethylene] has a CC50 at 24 h of over 90 µM.

same assay, conditions: rat, gh3-tre-luc cells, AC50 (uM) modified / 1000, Tox21_110001=Tox21_200234; viability, 1 nM T3 present, 24 h

With `O=C=NC1CCCCC1` [Isocyanatocyclohexane] the CC50 at 24 h was over 90 µM.

same assay, conditions: rat, gh3-tre-luc cells, AC50 (uM) modified / 1000, Tox21_110001=Tox21_200489; viability, 1 nM T3 present, 24 h

Work on `NNCc1ccccc1` [Benzylhydrazine dihydrochloride] yielded a CC50 at 24 h of over 90 µM.

same assay, conditions: rat, gh3-tre-luc cells, AC50 (uM) modified / 1000, Tox21_110001=Tox21_200490; viability, 1 nM T3 present, 24 h

In the case of `O=C1CCCO1` [4-Butyrolactone], the CC50 at 24 h was over 90 µM.

same assay, conditions: rat, gh3-tre-luc cells, AC50 (uM) modified / 1000, Tox21_110001=Tox21_200649; viability, 1 nM T3 present, 24 h

In the case of `CNC(=O)Oc1cc(C)c(N(C)C)c(C)c1` [Mexacarbate], the CC50 at 24 h was over 90 µM.

same assay, conditions: rat, gh3-tre-luc cells, AC50 (uM) modified / 1000, Tox21_110001=Tox21_201634; viability, 1 nM T3 present, 24 h

With `CCOP(=S)(OCC)SCSC(C)(C)C` [Terbufos] the CC50 at 24 h was over 90 µM.

same assay, conditions: rat, gh3-tre-luc cells, AC50 (uM) modified / 1000, Tox21_110001=Tox21_301581; viability, 1 nM T3 present, 24 h

`O=S1OC[C@@H]2[C@H](CO1)[C@]1(Cl)C(Cl)=C(Cl)[C@@]2(Cl)C1(Cl)Cl` (some centres unmarked) [Endosulfan I] gave a CC50 at 24 h of 69.4 µM.
